The record followed here is ChEMBL document CHEMBL1201862, “PubChem BioAssay data set” (2004).

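96-well plates; 48 h exposure; 5 concentrations. Endpoints by linear interpolation between flanking doses. Not reached: highest tested concentration assigned. GI50 is the concentration that inhibits growth by half.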 Active and inactive are the calls of the source. No stated cut-off is given here; in the data, active = GI50 up to about 1.1 µM and inactive = higher. A value given as a limit tells only on which side of the number the result lay.

Holding throughout (assay): NCI-60 cell line screen, 48 h
Test [1] has as its system 786-0.
Test [2] relates to CAKI-1.
Test [3] has as its system HCT-15.
Test [4] deals with LOX IMVI.
Test [5] deals with MDA-MB-231.
The subject of test [6] is MDA-N.
In test [7] the test system is Malme-3M.
Test [8] has as its system NCI-H23.
Test [9] relates to NCI-H460.
For test [10], the system named is RXF 393.
Test [11] relates to SF-268.
Test [12] relates to SF-539.
Test [13] deals with SK-MEL-5.
Test [14] concerns SN12C.
In test [15] the test system is SNB-75.
In test [16] the test system is TK-10.
The subject of test [17] is U-251.
In test [18] the test system is UACC-62.
Test [19] concerns UO-31.
The test system of test [20] is MOLT-4.

Regarding `Cc1ccc(SC(=O)N2C(=S)N=C(NC3CCCCC3)C23CCCCC3)cc1`, the GI50 was > 100 µM (inactive) in test [1]; > 100 µM (inactive) in test [2]; 87.9 µM in test [3]; 95.5 µM (inactive) in test [4]; > 100 µM (inactive) in [5]; > 100 µM (inactive) in test [6]. For the same compound, the GI50 in test [7] was > 100 µM (inactive); in [8], > 100 µM (inactive); in test [9] it was 81.3 µM (inactive); in test [10], 70 µM (inactive); in test [11] it was > 100 µM (inactive); in [12], > 100 µM (inactive). Further, the GI50 is > 100 µM (inactive) in test [13]; > 100 µM (inactive) in [14]; 57.9 µM (inactive) in test [15]; 25.2 µM (inactive) in test [16]; 95.3 µM (inactive) in test [17]; > 100 µM (inactive) in test [18]. In addition, in [19], the GI50 was 46.6 µM (inactive).
Turning to `Cc1nc(C)c(N2CCN(C(=O)NC(CCC(=O)O)C(=O)O)CC2)c(O)n1` (stereo not drawn), the GI50 in test [1] was > 100 µM (inactive); in test [2], > 100 µM (inactive); in test [3], more than 100 µM; in test [4], > 100 µM (inactive); in [5], > 100 µM (inactive); in [6], > 100 µM (inactive). Further, the GI50 in test [20], in test [7], in [8], in test [9], in test [10] and in test [11] was > 100 µM (inactive) throughout. Moreover, the GI50 in [12] is > 100 µM (inactive); in test [14], > 100 µM (inactive); in [15], < 0.01 µM (active); in test [16], > 100 µM (inactive); in test [17], > 100 µM (inactive); in test [18], > 100 µM (inactive). Also, the GI50 in test [19] was > 100 µM (inactive).
As to `Nc1ccc2c3c1cccc3c(=O)n1c3ccc(Cc4ccc5c(c4)nc4c6ccc(N)c7cccc(c(=O)n54)c76)cc3nc21`, the GI50 in [1], in test [2], in test [4], in test [5], in test [6] and in [20] was > 100 µM (inactive) throughout. Besides, the GI50 in [7], in test [8], in test [9], in test [10], in test [12] and in test [13] was > 100 µM (inactive) each time. Also, the GI50 in test [14] is > 100 µM (inactive); in [15], 30.8 µM (inactive); in [17], > 100 µM (inactive); in [18] it was > 100 µM (inactive); in [19] it was > 100 µM (inactive).
Regarding `c1cncc(-c2ncc3cccnc3n2)c1`, the GI50 in [1] was > 100 µM (inactive); in [2], > 100 µM (inactive); in test [3], more than 100 µM; in test [4], > 100 µM (inactive); in test [5], > 100 µM (inactive); in test [6], > 100 µM (inactive). The GI50 in test [20], in [7], in test [8], in test [9], in [10] and in [12] was > 100 µM (inactive) each time. Further, the GI50 in test [13], in test [14], in test [15], in test [16], in test [17] and in [18] was > 100 µM (inactive) throughout. Besides, the GI50 in test [19] is > 100 µM (inactive).
Turning to `CCOC(=O)c1cc2c3c(cc(OC)c2[nH]1)N(C(=O)OCC)CC3`, the GI50 in [1] was > 100 µM (inactive); in [2] it was > 100 µM (inactive); in test [3] it was more than 100 µM; in test [4], > 100 µM (inactive); in test [5], > 100 µM (inactive); in [6] it was > 100 µM (inactive). Also, the GI50 in test [20], in [7], in test [8], in test [9], in [10] and in [11] was > 100 µM (inactive) each time. The GI50 in [12], in [13], in test [14], in [15], in test [17] and in test [18] was > 100 µM (inactive) throughout. In [19], the GI50 is > 100 µM (inactive).
Turning to `O=C(O)[C@@H]1CCCN1` [PROLINE], the GI50 in test [1] is > 100 µM (inactive); in test [3], more than 100 µM; in test [4], > 100 µM (inactive); in [5] it was > 100 µM (inactive); in [6] it was > 100 µM (inactive); in [20], > 100 µM (inactive). In addition, the GI50 in [7], in [8], in [9], in test [10], in test [11] and in test [12] was > 100 µM (inactive) in each case. Further, the GI50 is > 100 µM (inactive) in test [13]; > 100 µM (inactive) in test [14]; 57.4 µM (inactive) in test [15]; > 100 µM (inactive) in test [16]; > 100 µM (inactive) in test [17]; > 100 µM (inactive) in test [18]. Further, the GI50 in [19] was > 100 µM (inactive).
For `CC1OC2=N[C@@H]1C(=O)N[C@@H](C(C)C)C1=N[C@H](C(=O)N[C@@H](C(C)C)C3=N[C@H](C(=O)N[C@@H](C(C)C)C4=N[C@H](C(=O)N[C@H]2C(C)C)C(C)O4)C(C)O3)C(C)O1` (stereo partly drawn), the GI50 is > 10 µM (inactive) in test [1]; > 10 µM (inactive) in [2]; more than 10 µM in [3]; > 10 µM (inactive) in [4]; > 10 µM (inactive) in [5]; > 10 µM (inactive) in test [6]. The GI50 in test [20], in [7], in test [8], in test [9], in [10] and in [11] was > 10 µM (inactive) in each case. Further, the GI50 in test [12], in test [13], in test [14], in test [15], in test [16] and in test [17] was > 10 µM (inactive) in each case. In test [19], the GI50 is > 10 µM (inactive).
On to `Oc1ccc([C@H]2c3c(O)cc(O)cc3C3c4c(cc(O)cc4[C@@H]2[C@H]2c4cc(O)cc5c4C(c4cc(O)cc(O)c4[C@@H]2c2ccc(O)cc2)[C@@H](c2ccc(O)cc2)O5)O[C@@H]3c2ccc(O)cc2)cc1` (stereo partly drawn), for which the GI50 in test [1] was 4.94 µM (inactive); in test [2], > 100 µM (inactive); in test [3], more than 100 µM; in test [4], 2.41 µM (inactive); in test [5] it was > 100 µM (inactive); in test [6], 0.871 µM (active). The GI50 is 0.975 µM (active) in [20]; 0.411 µM (active) in test [7]; 0.526 µM (active) in [8]; 3.89 µM (inactive) in test [9]; 0.0486 µM (active) in test [10]; 1.61 µM (inactive) in [11]. Moreover, the GI50 was 0.564 µM (active) in test [12]; 7.41 µM (inactive) in test [13]; > 100 µM (inactive) in [14]; 0.5 µM (active) in test [15]; > 100 µM (inactive) in test [16]; 3.55 µM (inactive) in test [17]. Besides, the GI50 in [18] was 0.15 µM (active).
Consider `N#CC1(O)CCCCCCCCCCC1`, for which the GI50 in test [1] was > 100 µM (inactive); in test [2], > 100 µM (inactive); in test [3], more than 100 µM; in test [4], > 100 µM (inactive); in test [5] it was > 100 µM (inactive); in [6] it was > 100 µM (inactive). Also, the GI50 in test [20], in [7], in [8], in test [9], in test [10] and in [11] was > 100 µM (inactive) throughout. Besides, the GI50 in [12], in test [13], in [14], in [16], in [17] and in test [18] was > 100 µM (inactive) each time. For the same compound, the GI50 in [19] is > 100 µM (inactive).
For `O=C(O)c1ccccc1CC(Cc1ccc2c(c1)CCC2)C(=O)O` (stereo not drawn), the GI50 is > 100 µM (inactive) in [1]; > 100 µM (inactive) in [2]; more than 100 µM in test [3]; > 100 µM (inactive) in [4]; > 100 µM (inactive) in test [5]; > 100 µM (inactive) in test [6]. The GI50 in test [20], in test [7], in test [8], in test [9], in test [10] and in test [11] was > 100 µM (inactive) in each case. The GI50 in [12], in test [13], in test [14], in [15], in [16] and in [17] was > 100 µM (inactive) each time. Further, the GI50 in test [19] was > 100 µM (inactive).
